One data set has as its system gallbladder. The settings on record: typical, patient pretreated before hepatobiliary imaging; cited from earlier work.
Data set [1] can be described thus: Oxidation of Sincalide methionine residues by trace metals with and without EDTA. The class given is physicochemical. The source says: Excipient impurities and/or stopper extractables can introduce trace metals into pharmaceutical formulations. Embodiments of the Sincalide formulations disclosed herein contain stabilizerichelator to inhibit the oxidation of the two methionine residues present in Sincalide (Met 3 and Met 6). Preferred chelators include edetic acid (EDTA) and derivatives thereof, including salts. […] In particular, copper and manganese, in the absence of EDTA, have the greatest oxidative effect on the methionine residues of Sincalide.

Data set [2] can be described thus: Stability of Sincalide in 35 mM phosphate buffer over pH 3.0-9.1 (recovery by RP-HPLC). The data set is classed as physicochemical. The method, then:
Experiments were conducted to determine the effect of pH on the chemical stability of Sincalide. Chemical instability, or degradation, may be caused by, for example, oxidation, reduction, de-amidation, hydrolysis, imide formation, racemization, isomerization, and/or β-elimination. To examine the effect of pH on Sincalide in phosphate buffer solution, solutions of Sincalide (˜1.7, μg/mL) were prepared in 35 mM phosphate buffer and pH-adjusted with either dilute HCl or NaOH for final pH values ranging from 3.0-9.1. Using reverse-phase HPLC (RP-HPLC) with gradient elution and UV detection at 215 nm, Sincalide stability in solution was assessed by measuring the recovery of Sincalide at 0, 6, and 24 hours after pH adjustment.
A 24-hour study on the stability of Sincalide in phosphate buffer over the pH range of 3.0-9.1 was conducted. By measure of the percentage recovery, Sincalide was stable in 35 mM phosphate buffer solution at pH values ranging from 5.0-9.1 over a 24-hour period. At pH values <5.0, Sincalide degradation was evident even at the initial time point.

A value given as a limit tells only on which side of the number the result lay.

In the case of `CSCC[C@H](NC(=O)[C@H](Cc1ccc(OS(=O)(=O)O)cc1)NC(=O)[C@@H](N)CC(=O)O)C(=O)NCC(=O)N[C@@H](Cc1c[nH]c2ccccc12)C(=O)N[C@@H](CCSC)C(=O)N[C@@H](CC(=O)O)C(=O)N[C@@H](Cc1ccccc1)C(N)=O` [Sincalide, 1-De(5-oxo-L-glutamine-5-L-proline)-2-de-L-me-thioninecaerulein], the “time to gallbladder contraction after injection” value in the data set with gallbladder was not above 15 min. For the same compound, the “formation of Sincalide Met 3 and Met 6 mono sulfoxides” value in data set [1] (presence of EDTA) was “inhibitory effect”. In addition, in data set [1] (presence of certain metals, absence of EDTA, copper and manganese greatest oxidative effect), the “amounts of the degradants Sincalide Met 3 and Met 6 mono sulfoxides” value was “increase”. Besides, the “pH values at which Sincalide was stable, by percentage recovery” value in data set [2] (35 mM phosphate buffer solution, over a 24-hour period, RP-HPLC UV 215 nm) is recorded as 5.0-9.1. For the same compound, the “pH values at which Sincalide degradation was evident” value in data set [2] (35 mM phosphate buffer, even at the initial time point) is listed as less than 5.0.

Source of the values: US20180360917A1, “SINCALIDE FORMULATIONS AND METHODS OF USE” (Apicore LLC, priority 2017, published 2018).
